# Test results taken from article PMC8799717, “Pharmacological targeting PIKfyve and tubulin as an effective treatment strategy for double-hit lymphoma” (Cell Death Discovery, 2022).
# Key:
# Assay in all cases: biochemical
# Set-up in all cases: KINOMEscan active-site-directed competition binding panel, 468 kinases, percent of DMSO control at 1 uM
# Details in all cases: KINOMEscan binding, percent of DMSO control; read-out: Ctrl%
# AMPK-alpha1 = target: T1, AMPK-alpha1 (Homo sapiens, UniProt Q13131)
# T1 construct: gene PRKAA1
# AURKB = AURKB (Homo sapiens, UniProt Q96GD4)
# CAMK4 = CAMK4 (Homo sapiens, UniProt Q16566)
# CDK4-cyclinD1 = target: T2, CDK4-cyclinD1 (Homo sapiens, UniProt P11802)
# T2 construct: cyclinD1
# DAPK1 = DAPK1 (Homo sapiens, UniProt P53355)
# DAPK3 = DAPK3 (Homo sapiens, UniProt O43293)
# EGFR(L858R,T790M) = EGFR(L858R,T790M) (Homo sapiens, UniProt P00533, L858R/T790M)
# IKK-alpha = target: T3, IKK-alpha (Homo sapiens, UniProt O15111)
# T3 construct: gene CHUK
# LATS1 = LATS1 (Homo sapiens, UniProt O95835)
# LRRK2 = LRRK2 (Homo sapiens, UniProt Q5S007)
# MAP3K4 = MAP3K4 (Homo sapiens, UniProt Q9Y6R4)
# MUSK = MUSK (Homo sapiens, UniProt O15146)
# NEK5 = NEK5 (Homo sapiens, UniProt Q6P3R8)
# NEK9 = NEK9 (Homo sapiens, UniProt Q8TD19)
# PIK3CA(E542K) = PIK3CA(E542K) (Homo sapiens, UniProt P42336, E542K)
# PIK3CA(Q546K) = PIK3CA(Q546K) (Homo sapiens, UniProt P42336, Q546K)
# PIM3 = PIM3 (Homo sapiens, UniProt Q86V86)
# [1] = target: T4, RSK2(Kin.Dom.2-C-terminal) (Homo sapiens, UniProt P51812)
# T4 construct: gene RPS6KA3; Kin.Dom.2-C-terminal
# SIK = target: T5, SIK (Homo sapiens, UniProt P57059)
# T5 construct: gene SIK1
# SRC = SRC (Homo sapiens, UniProt P12931)
# SRPK3 = SRPK3 (Homo sapiens, UniProt Q9UPE1)
# SgK110 = target: T6, SgK110 (Homo sapiens, UniProt P0C264)
# T6 construct: gene SBK3
# TNK2 = TNK2 (Homo sapiens, UniProt Q07912)
# TNNI3K = TNNI3K (Homo sapiens, UniProt Q59H18)
# Sequence of TNNI3K (Q59H18 whole entry): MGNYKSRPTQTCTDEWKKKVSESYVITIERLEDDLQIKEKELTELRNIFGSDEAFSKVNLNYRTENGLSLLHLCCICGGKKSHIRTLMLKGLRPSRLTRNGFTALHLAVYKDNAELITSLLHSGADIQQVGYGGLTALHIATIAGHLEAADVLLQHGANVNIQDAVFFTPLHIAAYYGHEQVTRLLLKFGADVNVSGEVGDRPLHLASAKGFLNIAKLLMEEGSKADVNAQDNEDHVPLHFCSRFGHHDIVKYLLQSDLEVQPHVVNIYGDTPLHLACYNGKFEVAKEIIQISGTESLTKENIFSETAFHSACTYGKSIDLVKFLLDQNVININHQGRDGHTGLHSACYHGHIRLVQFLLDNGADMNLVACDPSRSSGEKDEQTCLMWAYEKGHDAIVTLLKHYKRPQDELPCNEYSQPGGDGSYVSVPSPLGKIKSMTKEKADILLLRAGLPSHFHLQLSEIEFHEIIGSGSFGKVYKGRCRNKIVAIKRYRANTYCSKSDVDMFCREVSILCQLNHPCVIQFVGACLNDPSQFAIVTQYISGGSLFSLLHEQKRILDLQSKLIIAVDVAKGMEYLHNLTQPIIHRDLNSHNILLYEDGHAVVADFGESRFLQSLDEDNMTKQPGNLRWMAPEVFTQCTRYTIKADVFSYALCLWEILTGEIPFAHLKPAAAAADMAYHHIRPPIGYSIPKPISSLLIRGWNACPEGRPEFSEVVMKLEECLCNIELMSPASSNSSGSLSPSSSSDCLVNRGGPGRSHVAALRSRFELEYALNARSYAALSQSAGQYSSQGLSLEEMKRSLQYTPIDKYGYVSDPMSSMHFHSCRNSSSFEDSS
# Sequence of DAPK1 (P53355 whole entry): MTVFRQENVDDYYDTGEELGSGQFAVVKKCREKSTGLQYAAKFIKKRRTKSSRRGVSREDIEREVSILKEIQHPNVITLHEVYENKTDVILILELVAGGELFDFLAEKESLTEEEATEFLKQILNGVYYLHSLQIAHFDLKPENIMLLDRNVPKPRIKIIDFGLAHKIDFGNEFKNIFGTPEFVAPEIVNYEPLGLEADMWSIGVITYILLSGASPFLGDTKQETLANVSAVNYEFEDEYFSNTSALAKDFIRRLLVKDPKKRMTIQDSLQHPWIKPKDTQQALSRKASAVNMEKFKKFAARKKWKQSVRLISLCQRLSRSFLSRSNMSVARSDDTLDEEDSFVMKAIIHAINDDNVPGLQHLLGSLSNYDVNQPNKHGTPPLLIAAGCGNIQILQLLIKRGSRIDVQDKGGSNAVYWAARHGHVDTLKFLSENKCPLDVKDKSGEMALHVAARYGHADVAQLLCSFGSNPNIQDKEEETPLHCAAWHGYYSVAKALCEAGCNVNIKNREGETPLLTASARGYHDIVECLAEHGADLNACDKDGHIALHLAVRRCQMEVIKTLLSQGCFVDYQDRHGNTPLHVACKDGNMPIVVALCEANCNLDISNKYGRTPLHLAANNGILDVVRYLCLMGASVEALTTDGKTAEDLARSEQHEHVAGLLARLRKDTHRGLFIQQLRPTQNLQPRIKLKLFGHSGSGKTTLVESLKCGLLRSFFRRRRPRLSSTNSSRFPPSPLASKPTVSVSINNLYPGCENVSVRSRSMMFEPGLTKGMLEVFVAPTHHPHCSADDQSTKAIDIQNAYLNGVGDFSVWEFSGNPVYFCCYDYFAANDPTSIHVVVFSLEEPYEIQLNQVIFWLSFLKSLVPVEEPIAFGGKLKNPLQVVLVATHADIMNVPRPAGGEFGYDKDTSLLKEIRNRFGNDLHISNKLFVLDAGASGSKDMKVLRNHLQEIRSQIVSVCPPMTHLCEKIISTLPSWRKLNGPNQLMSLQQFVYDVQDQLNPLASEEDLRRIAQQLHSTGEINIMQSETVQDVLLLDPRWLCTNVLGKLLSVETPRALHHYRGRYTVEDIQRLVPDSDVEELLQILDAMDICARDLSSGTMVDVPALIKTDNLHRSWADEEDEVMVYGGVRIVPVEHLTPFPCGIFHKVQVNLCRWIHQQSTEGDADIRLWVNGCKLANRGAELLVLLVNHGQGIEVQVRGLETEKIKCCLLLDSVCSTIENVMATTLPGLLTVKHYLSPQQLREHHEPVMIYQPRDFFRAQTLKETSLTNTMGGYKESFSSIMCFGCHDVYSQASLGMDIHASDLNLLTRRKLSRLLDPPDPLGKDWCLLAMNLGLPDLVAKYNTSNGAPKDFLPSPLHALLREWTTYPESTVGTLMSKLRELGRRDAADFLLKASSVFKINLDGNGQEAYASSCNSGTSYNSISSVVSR
# Sequence of LRRK2 (Q5S007 whole entry): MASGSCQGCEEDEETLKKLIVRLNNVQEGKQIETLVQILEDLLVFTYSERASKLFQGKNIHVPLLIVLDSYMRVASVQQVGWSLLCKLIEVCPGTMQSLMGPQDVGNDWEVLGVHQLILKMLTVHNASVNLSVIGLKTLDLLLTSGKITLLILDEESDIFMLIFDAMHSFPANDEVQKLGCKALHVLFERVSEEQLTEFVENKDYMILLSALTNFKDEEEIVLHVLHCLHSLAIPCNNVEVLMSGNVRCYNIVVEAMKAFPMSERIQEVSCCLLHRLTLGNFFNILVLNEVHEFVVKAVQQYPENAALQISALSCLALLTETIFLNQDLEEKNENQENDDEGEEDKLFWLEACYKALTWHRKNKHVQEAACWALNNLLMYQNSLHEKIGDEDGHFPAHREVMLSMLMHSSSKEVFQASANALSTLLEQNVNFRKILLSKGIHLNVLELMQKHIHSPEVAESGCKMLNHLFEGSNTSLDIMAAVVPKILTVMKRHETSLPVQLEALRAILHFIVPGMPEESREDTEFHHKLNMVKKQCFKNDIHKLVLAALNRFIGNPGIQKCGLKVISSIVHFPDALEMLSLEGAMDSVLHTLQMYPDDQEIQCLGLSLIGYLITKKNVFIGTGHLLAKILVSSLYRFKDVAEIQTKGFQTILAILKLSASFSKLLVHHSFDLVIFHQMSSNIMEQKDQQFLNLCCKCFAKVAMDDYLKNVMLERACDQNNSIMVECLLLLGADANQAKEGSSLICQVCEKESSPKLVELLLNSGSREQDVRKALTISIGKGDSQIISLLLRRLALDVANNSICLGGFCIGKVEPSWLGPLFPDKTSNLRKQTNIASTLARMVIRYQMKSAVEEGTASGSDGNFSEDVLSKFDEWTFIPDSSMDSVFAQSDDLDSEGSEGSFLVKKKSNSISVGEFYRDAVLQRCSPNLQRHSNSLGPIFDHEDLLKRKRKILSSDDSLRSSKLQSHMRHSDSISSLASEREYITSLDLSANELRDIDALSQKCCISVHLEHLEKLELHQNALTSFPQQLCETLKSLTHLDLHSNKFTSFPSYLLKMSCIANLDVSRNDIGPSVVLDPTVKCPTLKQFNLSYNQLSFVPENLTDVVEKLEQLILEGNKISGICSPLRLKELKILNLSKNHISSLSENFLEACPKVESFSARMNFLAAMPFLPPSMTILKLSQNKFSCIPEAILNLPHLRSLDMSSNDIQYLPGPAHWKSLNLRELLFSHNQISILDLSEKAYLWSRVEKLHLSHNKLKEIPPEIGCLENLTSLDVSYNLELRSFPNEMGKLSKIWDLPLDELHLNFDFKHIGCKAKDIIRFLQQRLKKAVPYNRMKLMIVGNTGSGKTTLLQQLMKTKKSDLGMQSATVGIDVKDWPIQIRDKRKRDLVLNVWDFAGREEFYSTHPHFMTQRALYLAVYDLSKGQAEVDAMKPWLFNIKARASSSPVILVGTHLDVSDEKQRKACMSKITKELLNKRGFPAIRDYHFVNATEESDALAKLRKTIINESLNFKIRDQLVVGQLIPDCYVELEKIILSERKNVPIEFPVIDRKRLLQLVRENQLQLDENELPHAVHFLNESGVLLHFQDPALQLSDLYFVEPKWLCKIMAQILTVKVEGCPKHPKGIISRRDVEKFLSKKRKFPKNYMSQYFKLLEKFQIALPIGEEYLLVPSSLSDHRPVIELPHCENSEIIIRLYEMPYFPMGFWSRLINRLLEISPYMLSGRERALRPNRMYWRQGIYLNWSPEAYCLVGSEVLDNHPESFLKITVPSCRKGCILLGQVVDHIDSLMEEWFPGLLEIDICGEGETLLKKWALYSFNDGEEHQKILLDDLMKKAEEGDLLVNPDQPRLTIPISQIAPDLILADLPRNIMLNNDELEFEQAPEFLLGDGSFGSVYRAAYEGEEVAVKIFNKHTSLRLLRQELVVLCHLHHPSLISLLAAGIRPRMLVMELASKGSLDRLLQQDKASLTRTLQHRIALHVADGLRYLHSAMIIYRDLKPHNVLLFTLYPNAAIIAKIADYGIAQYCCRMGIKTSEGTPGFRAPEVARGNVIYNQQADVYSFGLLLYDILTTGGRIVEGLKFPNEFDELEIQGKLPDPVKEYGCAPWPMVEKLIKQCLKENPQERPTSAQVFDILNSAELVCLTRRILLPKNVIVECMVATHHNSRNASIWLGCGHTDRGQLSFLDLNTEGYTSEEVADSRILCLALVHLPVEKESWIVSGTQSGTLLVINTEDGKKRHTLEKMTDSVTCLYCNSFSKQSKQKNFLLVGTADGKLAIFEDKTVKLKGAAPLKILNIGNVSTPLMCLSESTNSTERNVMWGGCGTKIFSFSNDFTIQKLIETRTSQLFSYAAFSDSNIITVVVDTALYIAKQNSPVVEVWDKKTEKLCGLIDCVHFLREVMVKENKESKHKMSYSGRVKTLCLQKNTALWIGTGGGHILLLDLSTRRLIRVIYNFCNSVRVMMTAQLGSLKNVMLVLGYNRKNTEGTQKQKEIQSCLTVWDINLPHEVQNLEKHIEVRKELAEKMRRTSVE
# Sequence of AURKB (Q96GD4 whole entry): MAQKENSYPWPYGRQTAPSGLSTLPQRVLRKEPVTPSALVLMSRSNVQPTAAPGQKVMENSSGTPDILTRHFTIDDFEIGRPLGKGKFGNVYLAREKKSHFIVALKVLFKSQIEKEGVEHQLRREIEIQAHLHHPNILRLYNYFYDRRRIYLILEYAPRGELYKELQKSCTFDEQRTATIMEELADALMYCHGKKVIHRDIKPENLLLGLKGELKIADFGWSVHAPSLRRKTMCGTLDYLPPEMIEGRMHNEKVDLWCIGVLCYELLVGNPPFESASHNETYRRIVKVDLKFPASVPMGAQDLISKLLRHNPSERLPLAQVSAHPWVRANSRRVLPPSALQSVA
smiles,measurement,setting,value
Cc1ccc(NC(=O)c2cccc(C(F)(F)F)c2)cc1Nc1cc(-c2cccnc2)nc2[nH]ccc12 [HZX-02-059],remaining binding at 1 µM,AMPK-alpha1,97%
same,remaining binding at 1 µM,AURKB,100%
same,remaining binding at 1 µM,CAMK4,83%
same,remaining binding at 1 µM,CDK4-cyclinD1,98%
same,remaining binding at 1 µM,DAPK1,93%
same,remaining binding at 1 µM,DAPK3,96%
same,remaining binding at 1 µM,"EGFR(L858R,T790M)",79%
same,remaining binding at 1 µM,IKK-alpha,100%
same,remaining binding at 1 µM,LATS1,95%
same,remaining binding at 1 µM,LRRK2,100%
same,remaining binding at 1 µM,MAP3K4,100%
same,remaining binding at 1 µM,MUSK,100%
same,remaining binding at 1 µM,NEK5,100%
same,remaining binding at 1 µM,NEK9,71%
same,remaining binding at 1 µM,PIK3CA(E542K),56%
same,remaining binding at 1 µM,PIK3CA(Q546K),66%
same,remaining binding at 1 µM,PIM3,89%
same,remaining binding at 1 µM,[1],100%
same,remaining binding at 1 µM,SIK,90%
same,remaining binding at 1 µM,SRC,78%
same,remaining binding at 1 µM,SRPK3,93%
same,remaining binding at 1 µM,SgK110,100%
same,remaining binding at 1 µM,TNK2,98%
same,remaining binding at 1 µM,TNNI3K,6.3%
